Experimental data published in patent US7799809B2, “Carboxamide compounds and their use as calpain inhibitors” (Abbott GmbH & Co. KG, priority 2006, dated 2010).

Legend:
cathepsin L = biological target: T1, cathepsin L (Homo sapiens, UniProt P07711); assay: Cathepsin L enzyme inhibition in vitro (kinetic fluorescence assay); type: biochemical; settings: cathepsin L isolated from human liver vs calpain I
T1 construct: cathepsin L—isolated from human liver (Calbiochem #219402); purchased Calbiochem 219402; host or cells: human liver (tissue-derived)
Description: (§1) The following solutions and buffers were employed: • HBS (for 40 ml): 800 μl M HEPES; 2.16 ml 100 mM KCl; 4.8 ml 1M NaCl; 3.59 ml 5% glucose; 60 μl μM MgSO4; 400 μl 100 mM Na pyruvate, 28.19 ml water; pH 7.2-7.5. • lysis buffer (for 20 ml): 400 μl M Tris pH 8.2; 2.74 ml 1M NaCl; 520 μl 0.5M EDTA; 2 ml 10% triton X-100; 0.8 ml (=1:25) CompletePlus (1 tablet/2 ml H2O); 200 μl 100 mM Pefabloc; 13.34 ml water, pH 8.2. • TBST (10×) (for 1 l): 100 mM Tris (12.1 g); 1.5M NaCl (87 g); 1% Tween 20 (10 g), adjusted to pH 8. I Enzyme Inhibition In Vitro: • Testing for blockade of the corresponding enzymic activities was carried out by means of kinetic fluorescence assays (excitation 390 nm, emission 460 nm). • Apparent Ki values were calculated from the experimentally determined IC50 values by the Cheng-Prussoff relation assuming a reversible competitive enzyme inhibition. The Km values of the substrates used under the assay conditions indicated above were: 90 μM (Z-Phe-Arg-AMC, cathepsin B), 10 μM (Z-Gly-Pro-Arg-AMC, cathepsin K), 2 μM (Z-Phe-Arg-AMC, cathepsin L), and 30 μM (Z-Val-Val-Arg-AMC, cathepsin S). • The indicated Ki values are averages of the inhibition constants calculated on the basis of 2 to 4 independent dose-effect plots.
(§2) The following assays were used: • 1. Calpain I: • 20 nM calpain-I—isolated from human erythrocytes (Calbiochem #208713), 100 μM Suc-Leu-Tyr-AMC (Bachem #1-1355) as substrate in buffer with 62 mM imidazole, 0.3 mM CaCl2, 0.10% CHAPS, 0.05% BSA, 1 mM DTT at pH 7.3 and room temperature. • 2. Cathepsin B: • 0.25 nM cathepsin B—isolated from human liver (Calbiochem #219362), 100 μM Z-Phe-Arg-AMC (Bachem #I-1160) as substrate 50 mM MES, 2 mM EDTA, 0.05% Brij 35, 2.5 mM L-cysteine, pH 6.0, room temperature. • 3. Cathepsin K: • 3 nM cathepsin K—activated from recombinant human procathepsin K from E. coli (Calbiochem #342001), 10 μM Z-Gly-Pro-Arg-AMC (Biomol #P-142) as substrate in 50 mM MES, 2 mM EDTA, 0.05% Brij 35, 2.5 mM L-cysteine, pH 6.0, room temperature. • 4. Cathepsin L: • 1 nM cathepsin L—isolated from human liver (Calbiochem #219402), 2 μM Z-Phe-Arg-AMC (Bachem #1-1160) as substrate in 50 mM MES, 2 mM EDTA, 0.05% Brij 35, 2.5 mM L-cysteine, pH 6.0, room temperature. • 5. Cathepsin S: • 0.5 nM recombinant human cathepsin S from E. coli (Calbiochem #219343), 20 μM Z-Val-Val-Arg-AMC (Bachem #1-1540) as substrate in 50 mM MES, 2 mM EDTA, 0.05% Brij 35, 2.5 mM L-cysteine, pH 6.0, room temperature. • The results of the in vitro determination are indicated in Table 1. The following abbreviations are used in Table 1: • The “Calpain activity” column, ++ stands for a calpain Ki (Ki(calpain)) of ≦40 nM and + means: 40 nM<Ki(Calpain)≦100 nM. • The “Sel. cat. B” column indicates the Ki(cathepsin B)/Ki(calpain) ratio. In this connection, ++ means a Ki(cathepsin B)/Ki(calpain) ratio of ≧30 and + means 10≦Ki(cathepsin B)/Ki(calpain)<30. • The “Sel. cat. K” column indicates the Ki(cathepsin K)/Ki(calpain) ratio. In this connection, ++ means a Ki(cathepsin K)/Ki(calpain) ratio of ≧30 and + means 10≦Ki(cathepsin K)/Ki(calpain)<30. • The “Sel. cat. L” column indicates the Ki(cathepsin L)/Ki(calpain) ratio. In this connection, ++ means a Ki(cathepsin L)/Ki(calpain) ratio of ≧50 and + means 30≦Ki(cathepsin L)/Ki(calpain)<50. • The “Sel. cat. S” column indicates the Ki(cathepsin S)/Ki(calpain) ratio. In this connection, ++ means a Ki(cathepsin S)/Ki(calpain) ratio of ≧100 and + means 50≦Ki(cathepsin S)/Ki(calpain)<100.

cathepsin S = biological target: T2, cathepsin S (Homo sapiens, UniProt P25774); assay: Cathepsin S enzyme inhibition in vitro (kinetic fluorescence assay); type: biochemical; settings: recombinant human cathepsin S vs calpain I
T2 construct: purchased Calbiochem 219343; host or cells: E. coli
Description: as §1, §2

T1 sequence (P07711 114-333): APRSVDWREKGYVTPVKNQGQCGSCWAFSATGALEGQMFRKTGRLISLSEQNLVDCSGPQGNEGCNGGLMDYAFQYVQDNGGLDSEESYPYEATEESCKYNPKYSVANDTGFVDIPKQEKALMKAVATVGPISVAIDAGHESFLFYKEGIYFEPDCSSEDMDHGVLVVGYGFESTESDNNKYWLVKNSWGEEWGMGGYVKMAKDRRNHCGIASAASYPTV
T2 sequence (P25774 115-331): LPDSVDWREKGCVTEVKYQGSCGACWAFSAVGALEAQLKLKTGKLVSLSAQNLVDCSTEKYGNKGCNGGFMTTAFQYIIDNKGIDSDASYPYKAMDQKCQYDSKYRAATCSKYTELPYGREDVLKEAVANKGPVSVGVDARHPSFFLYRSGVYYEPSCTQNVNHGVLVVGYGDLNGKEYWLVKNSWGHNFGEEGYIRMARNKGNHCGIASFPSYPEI

| Structure (SMILES) | Sel cat. L: Ki(cathepsin L)/Ki(calpain) ratio (cathepsin L) | Sel cat. S: Ki(cathepsin S)/Ki(calpain) ratio (cathepsin S) |
| --- | --- | --- |
| CCCCC(NC(=O)c1cccnc1-n1cnc(-c2ccccc2)c1)C(=O)C(N)=O (centres unmarked) [Example 2, N-{1-[Amino(oxo)acetyl]pentyl}-2-(4-phenyl-1H-imidazol-1-yl)nicotinamide] | ++ (++ means a Ki(cathepsin L)/Ki(calpain) ratio of ≧50) |  |
| NC(=O)C(=O)C(Cc1ccccc1)NC(=O)c1cccnc1-n1cnc(-c2ccc(Cl)cc2)c1 (centres unmarked) [Example 9, N-(3-Amino-1-benzyl-2,3-dioxopropyl)-2-[4-(4-chlorophenyl)-1H-imidazol-1-yl]nicotinamide] | + (+ means 30≦Ki(cathepsin L)/Ki(calpain)<50) | ++ (++ means a Ki(cathepsin S)/Ki(calpain) ratio of ≧100) |
| COc1ccc(-c2cn(-c3ncccc3C(=O)NC(Cc3ccccc3)C(=O)C(N)=O)cn2)cc1 (centres unmarked) [Example 13, N-(3-Amino-1-benzyl-2,3-dioxopropyl)-2-[4-(4-methoxyphenyl)-1H-imidazol-1-yl]nicotinamide] | ++ (++ means a Ki(cathepsin L)/Ki(calpain) ratio of ≧50) | + (+ means 50≦Ki(cathepsin S)/Ki(calpain)<100) |
| CCCCC(NC(=O)c1cccnc1-n1cnc(-c2ccc(N3CCOCC3)cc2)c1)C(=O)C(N)=O.Cl (centres unmarked) [Example 15, N-{1-[Amino(oxo)acetyl]pentyl}-2-[4-(4-morpholin-4-ylphenyl)-1H-imidazol-1-yl]nicotinamide hydrochloride] | ++ (++ means a Ki(cathepsin L)/Ki(calpain) ratio of ≧50) | + (+ means 50≦Ki(cathepsin S)/Ki(calpain)<100) |
| CCCCC(NC(=O)c1cccnc1-n1cnc(-c2ccc(C(F)(F)F)cc2)c1)C(=O)C(N)=O.Cl (centres unmarked) [Example 17, N-{1-[Amino(oxo)acetyl]pentyl}-2-{4-[4-(trifluoromethyl)phenyl]-1H-imidazol-1-yl}nicotinamide hydrochloride] | ++ (++ means a Ki(cathepsin L)/Ki(calpain) ratio of ≧50) | + (+ means 50≦Ki(cathepsin S)/Ki(calpain)<100) |
| Cl.NC(=O)C(=O)C(Cc1ccccc1)NC(=O)c1cccnc1-n1cnc(-c2ccc(C(F)(F)F)cc2)c1 (centres unmarked) [Example 18, N-(3-Amino-1-benzyl-2,3-dioxopropyl)-2-{4-[4-(trifluoromethyl)phenyl]-1H-imidazol-1-yl}nicotinamide hydrochloride] | + (+ means 30≦Ki(cathepsin L)/Ki(calpain)<50) | ++ (++ means a Ki(cathepsin S)/Ki(calpain) ratio of ≧100) |
| CCCCC(NC(=O)c1cc(Cl)cnc1-n1cnc(-c2ccccc2)c1)C(=O)C(N)=O.Cl (centres unmarked) [Example 24, N-{1-[Amino(oxo)acetyl]pentyl}-5-chloro-2-(4-phenyl-1H-imidazol-1-yl)nicotinamide hydrochloride] | + (+ means 30≦Ki(cathepsin L)/Ki(calpain)<50) |  |
| NC(=O)C(=O)C(Cc1ccccc1)NC(=O)c1cccnc1-n1ccc(-c2ccc(Cl)cc2)n1 (centres unmarked) [Example 39, N-(3-Amino-1-benzyl-2,3-dioxopropyl)-2-[3-(4-chlorophenyl)-1H-pyrazol-1-yl]nicotinamide] | ++ (++ means a Ki(cathepsin L)/Ki(calpain) ratio of ≧50) | ++ (++ means a Ki(cathepsin S)/Ki(calpain) ratio of ≧100) |
| CCCCC(NC(=O)c1cccnc1-n1ccc(-c2ccc(OC)cc2)n1)C(=O)C(N)=O (centres unmarked) [Example 49, N-{1-[Amino(oxo)acetyl]pentyl}-2-[3-(4-methoxyphenyl)-1H-pyrazol-1-yl]nicotinamide] | + (+ means 30≦Ki(cathepsin L)/Ki(calpain)<50) | ++ (++ means a Ki(cathepsin S)/Ki(calpain) ratio of ≧100) |
| NC(=O)C(=O)C(Cc1cccs1)NC(=O)c1cccnc1-n1ccc(-c2ccc(F)cc2)n1 (centres unmarked) [Example 57, N-[3-Amino-2,3-dioxo-1-(2-thienylmethyl)propyl]-2-[3-(4-fluorophenyl)-1H-pyrazol-1-yl]nicotinamide] | ++ (++ means a Ki(cathepsin L)/Ki(calpain) ratio of ≧50) | ++ (++ means a Ki(cathepsin S)/Ki(calpain) ratio of ≧100) |
| CCCCC(NC(=O)c1cccnc1-n1ccc(-c2cccc(N3CCOCC3)c2)n1)C(=O)C(N)=O (centres unmarked) [Example 59, N-{1-[Amino(oxo)acetyl]pentyl}-2-[3-(3-morpholin-4-ylphenyl)-1H-pyrazol-1-yl]nicotinamide] | ++ (++ means a Ki(cathepsin L)/Ki(calpain) ratio of ≧50) | + (+ means 50≦Ki(cathepsin S)/Ki(calpain)<100) |
| NC(=O)C(=O)C(Cc1ccccc1)NC(=O)c1cccnc1-n1cc(-c2ccccc2F)cn1 (centres unmarked) [Example 104, N-[3-Amino-2,3-dioxo-1-(phenylmethyl)propyl]-2-[4-(2-fluorophenyl)-1H-pyrazol-1-yl]pyridine-3-carboxamide] |  | + (+ means 50≦Ki(cathepsin S)/Ki(calpain)<100) |
| NC(=O)C(=O)C(Cc1ccccc1)NC(=O)c1cccnc1-n1cc(CCN2CCOCC2)c(-c2ccc(F)cc2)n1 (centres unmarked) [Example 165, N-[3-Amino-2,3-dioxo-1-(phenylmethyl)propyl]-2-[3-(4-fluorophenyl)-4-(2-morpholin-4-ylethyl)-1H-pyrazol-1-yl]pyridine-3-carboxamide] |  | ++ (++ means a Ki(cathepsin S)/Ki(calpain) ratio of ≧100) |
| COCc1cn(-c2ncccc2C(=O)NC(Cc2ccccc2)C(=O)C(N)=O)nc1-c1ccc(F)cc1 (centres unmarked) [Example 170, N-[3-Amino-2,3-dioxo-1-(phenylmethyl)propyl]-2-{3-(4-fluorophenyl)-4-[(methyloxy)methyl]-1H-pyrazol-1-yl}pyridine-3-carboxamide] | + (+ means 30≦Ki(cathepsin L)/Ki(calpain)<50) |  |
| CN(C)Cc1cn(-c2ncccc2C(=O)NC(Cc2ccccc2)C(=O)C(N)=O)nc1-c1cccc(C(F)(F)F)c1 (centres unmarked) [Example 176, N-[3-Amino-2,3-dioxo-1-(phenylmethyl)propyl]-2-{4-[(dimethylamino)methyl]-3-[3-(trifluoromethyl)phenyl]-1H-pyrazol-1-yl}pyridine-3-carboxamide] |  | ++ (++ means a Ki(cathepsin S)/Ki(calpain) ratio of ≧100) |
| NC(=O)C(=O)C(Cc1ccccc1)NC(=O)c1cccnc1-n1cc(CN2CCOCC2)c(-c2cccc(C(F)(F)F)c2)n1 (centres unmarked) [Example 177, N-[3-Amino-2,3-dioxo-1-(phenylmethyl)propyl]-2-{4-(morpholin-4-ylmethyl)-3-[3-(trifluoromethyl)phenyl]-1H-pyrazol-1-yl}pyridine-3-carboxamide] |  | ++ (++ means a Ki(cathepsin S)/Ki(calpain) ratio of ≧100) |
| NC(=O)C(=O)C(Cc1ccccc1)NC(=O)c1cccnc1-n1cc(CN2CCCC2)c(-c2cccc(C(F)(F)F)c2)n1 (centres unmarked) [Example 178, N-[3-Amino-2,3-dioxo-1-(phenylmethyl)propyl]-2-{4-(pyrrolidin-1-ylmethyl)-3-[3-(trifluoromethyl)phenyl]-1H-pyrazol-1-yl}pyridine-3-carboxamide] |  | ++ (++ means a Ki(cathepsin S)/Ki(calpain) ratio of ≧100) |
